Measurements as given in US10821091B2, “Retinoid compositions and methods of increasing immune cell-mediated killing of IDH mutant cancer cells” (UNIVERSITY OF PITTSBURGH—OF THE COMMONWEALTH SYSTEM OF …, priority 2017, dated 2020).
Entries after “also recorded” stand apart in the source; their conditions may differ.

Tests used:
[1] = tested on: IDH mutant primary glioma cells; assay: Tumor growth in athymic nude mice with flank glioma tumors; type: in vivo
Procedure: Mice. 6-8 week old Balb/c nude mice (CAnN.Cg-Foxn1nu/Crl) were purchased from Charles River Laboratories. Mice were injected with 10^6 IDH WT or mutant primary glioma cells sub-cutaneously in the right flank. When the tumors were about 25 mm^2, ATRA treatment was started. 10 mg/Kg ATRA was administered to mice intra-peritoneally (i.p.) every alternate day until termination of the experiment. DMSO-treated mice were used as controls. The mice were monitored for signs of drug toxicity such as weight-loss, lethargy, skin lesions and diarrhea. The tumors were measured every 3 days, and the mice were sacrificed when the tumors were about 400 mm^2. For NK depletion experiments, 6-week old B6 nude mice (B6.Cg-Foxn1nu/J) were purchased from The Jackson Laboratory. NK depletion was performed by injecting mice with 200 μg of anti-NK1.1 antibody (Biolegend) i.p. on the day ATRA treatment was started. Mice injected with 200 μg of an isotype antibody were used as controls. Mice were bled and evaluated for circulating NKs by flow cytometry.
ATRA promotes tumor stasis in IDH mutant tumor-bearing mice. To determine the value of ATRA as a therapeutic modality, its anti-tumor efficacy in vivo was evaluated. […] Tumors were measured every 3 days. […] Resected tumors from ATRA or DMSO-treated mice were digested to obtain single cell suspensions and assessed for killing by human and mouse NK cells ex vivo.

IDH mutant tumors [2] = assay: Flow cytometry of tumor-infiltrating lymphocytes (TILs); type: in vivo; settings: IDH mutant tumor-bearing mice, vs DMSO-treated controls
Procedure: Flow cytometry for TILs. IDH WT and mutant tumors were dissociated to form a single cell suspension (SCS). The SCS was then overlaid onto sucrose gradient (Lympholyte-M) and centrifuged at 2400 rpm for 20 minutes. Immune cells at the interphase of the 2 liquids were collected and washed once with PBS. The cells were then stained with appropriate antibodies and acquired on a BD LSR Fortessa flow cytometer. Briefly, cells were washed with PBS and stained with 1 μg antibody for 30 minutes at 4° C. After incubation, the cells were washed three times with FACS buffer (PBS+10% FBS+0.1% Na-azide), resuspended in a final volume of 200 μl of FACS buffer and run through the flow cytometer. Flow cytometry data was analyzed on the Flowjo® v9.1 software. Antibodies used for flow cytometry were as follows: CD45- PE-Cy7, NKp46-FITC, CD11b-APC-Cy7, Gr-1-APC, F4/80-eFluor450, Ly6-c-PerCP-Cy5.5 and CD11c-PE.
ATRA promotes tumor stasis in IDH mutant tumor-bearing mice. To determine the value of ATRA as a therapeutic modality, its anti-tumor efficacy in vivo was evaluated. Athymic nude mice were implanted with 10^6 IDH mutant or WT primary glioma cells in the flank. 21 days after tumor inoculation (when tumors were about 25 mm^2), 10 mg/kg ATRA was administered every other day for 21 days. Tumors were measured every 3 days. […] Resected tumors from ATRA or DMSO-treated mice were digested to obtain single cell suspensions and assessed for killing by human and mouse NK cells ex vivo.

IDH mutant tumors [3] = assay: Comparison of RA isoforms in tumor-bearing mice; type: in vivo
Description: Mice. […] DMSO-treated mice were used as controls.
Therefore, the efficacy of two other RA isoforms were compared with ATRA in IDH mutant gliomas. […] However, treatment of IDH mutant tumors with all three retinoic acid isoforms reduced tumor size (the bottom 3 data lines at Day 40 having endpoints below 100 mm^2). […] The changes in tumor microenvironment induced by ATRA differed from the other RA isoforms as well.

[4] = tested on: IDH MUT (IDH1 R132H) tumors; assay: CCL2 neutralization in ATRA-treated tumor-bearing mice; type: in vivo; settings: 10 mg/kg ATRA every alternate day, 1 μg anti-CCL2 neutralizing antibody
Procedure: IDH WT and MUT (IDH1 R132H) tumor-bearing mice were treated with 10 mg/kg ATRA every alternate day starting on day 18 after tumor inoculation. Mice were also injected with 1 μg anti-CCL2 neutralizing antibody (or anti isotype antibody) on the 1st day of ATRA treatment.

[5] = tested on: IDH mutant (HT-1080, R132C IDH1 mutation) chondrosarcoma cells; assay: Viability and apoptosis of chondrosarcoma cells; type: cell-based; settings: 48 hours
Procedure: IDH mutant (HT-1080, R132C IDH1 mutation) chondrosarcoma cells were treated with different doses of ATRA or DMSO for 48 hours. After treatment, cells were evaluated for viability (FIG. 11A) and apoptosis by caspase activity (FIG. 11B). […] Additionally, IDH WT cells and IDH mutant chondrosarcoma cells were treated with different doses of ATRA or DMSO for 48 hours.

[6] = tested on: RBP1 in IDH mutant (HT-1080) cells; assay: RBP1 levels by qPCR in chondrosarcoma cells; type: cell-based; settings: 1 μM or 10 μM ATRA, 48 hours
Description: IDH mutant tumor cells produce reduced amounts of RBP1 compared to WT IDH tumor cells (FIG. 11D).

CC1=C(/C=C/C(C)=C/C=C/C(C)=C/C(=O)O)C(C)(C)CCC1 [ATRA, all-trans retinoic acid]
tumor growth ([1]; 10 mg/kg every other day for 21 days, vs DMSO (vehicle)-treated mice and mice with WT tumors): significantly slower tumor growth | ex vivo expression of ULBP1 and ULBP3 in tumors ([1]; ATRA-treated IDH mutant tumors (data not shown)): increased ex vivo expression of ULBP1 and ULBP3 | MDSCs and monocytes in TILs (IDH mutant tumors [2]): lower MDSCs and monocytes | NKs in TILs (IDH mutant tumors [2]): higher number | infiltration of immune cells overall (TILs) (IDH mutant tumors [2]): higher infiltration of immune cells overall | macrophages in TILs (IDH mutant tumors [2]): higher number of macrophages | efficacy at retarding IDH mutant tumor growth compared among RA isoforms (IDH mutant tumors [3]; ATRA vs 13-cis RA and bexarotene): significantly more effective at retarding IDH mutant tumor growth in vivo; also recorded: the most effective RA isoform in terms of tumor growth | tumor microenvironment immune cells (IDH mutant tumors [3]; after ATRA treatment, compared with 13-cis RA and bexarotene): lower MDSCs and monocytes, and higher DCs and macrophages | gene expression levels of ULBP3 ex vivo (IDH mutant tumors [3]; compared with 13-cis RA and bexarotene): higher gene expression levels of ULBP3 | killing of IDH mutant cells by NK cells (IDH mutant tumors [3]; ex vivo co-culture with human NKs, compared among RA isoforms): significantly increased killing of IDH mutant cells by NK cells; also recorded: highest level of NK-mediated killing | tumor stasis with CCL2 blockade [4]: CCL2 blockade reversed ATRA-mediated tumor stasis | apoptosis by caspase activity ([5]; HT-1080, different doses): induced apoptotic cell death | cell viability ([5]; HT-1080, different doses): decreased cell viability | 7-AAD levels (flow cytometry) ([5]; IDH WT and IDH mutant chondrosarcoma cells, different doses): increased 7-AAD levels corresponding to increased apoptotic cell death in a dose-dependent manner | RBP1 levels [6]: increased RBP1 levels in IDH mutant chondrosarcoma cells in a dose dependent manner
